“Also recorded” adds a separate entry of the source.
What was measured:
MCF-7 cells = assay: MTT cell proliferation assay, FOXC1-overexpressing vs control cells; type: cell-based, human
Experimental: MCF-7 and T47D human breast cancer cell lines were obtained from the Breast Center at Baylor College of Medicine. Cells were routinely maintained in Dulbecco's modified Eagle's medium (DMEM) supplemented with 10% fetal bovine serum (FBS), 2 mM glutamine, 50 IU/ml of penicillin, 50 μg/ml of streptomycin, and 10 μg/ml insulin. Cells were kept at 37° C. in a humidified incubator with 5% CO2. Tamoxifen and 17β-estradiol were from Sigma (St Louis, Mo.). The IKK small molecule inhibitor BMS-345541 was purchased from Calbiochem (Gibbstown, N.J.). For experiments involving estradiol and tamoxifen, cells were serum-starved overnight and then stimulated with the ER ligands for different time periods prior to cell proliferation assays. Cell viability was assessed by the 3-(4,5-dimethylthiazol-2-yl)-2,5-diphenyltetrazolium (MTT) assay. Cells were seeded in 24-well plates at 30% confluence and the MTT assay was performed one, two, three and four days after treatment. For each assay, 50 μl of MTT (5 mg/ml) were added to each well and cells were incubated at 37° C. for an additional 4 h. After centrifugation, the supernatant was carefully aspirated and 300 μl of DMSO (Sigma) were added to each well. Immediately after resolubilization, all plates were scanned at 575 nm on a microplate reader. The absorbance (A) value represented the number of live cells.

[1] = tested on: BT549 basal-like/claudin-low cells; assay: Cell viability (relative survival) with increasing doses of iCRT3; type: cell-based, human; settings: BT549 (high constitutive FOXC1 expressor) compared to MCF7 (luminal) or SKBR3 (HER2) cell lines
Excerpt: (§1) FIGS. 45A-45B show the relative survival of representative breast cancer cell lines upon inhibition of Wnt/β catenin signaling with increasing doses of the inhibitor iCRT3.

[2] = tested on: HS578T basal-like/claudin-low cells; assay: as above; type: cell-based, human; settings: HS578T (high constitutive FOXC1 expressor) compared to MCF7 (luminal) or SKBR3 (HER2) cell lines
Excerpt: as §1

FOXC1 expression = FOXC1 expression upon inhibition of Wnt/β catenin signaling; type: cell-based, human; settings: Wnt inhibition, dose and time dependent, particularly pronounced in BT549 mammosphere cultures
[3] = tested on: stem related genes and NF-κB signaling in BT549 mammosphere cells; assay: qRT-PCR profiling of residual mammosphere cells after Wnt inhibition; type: cell-based, human
Excerpt: FIG. 48 is a bar graph showing the fold change of mRNA expression of the stem related genes BMI-1, FOXC1, KIT, NANOG, OCT4, and SOX2 upon inhibition of Wnt/β catenin signaling by addition of iCRT-3 on day 4 (left hand bar) and day 7 (right hand bar).

[4] = tested on: BT549 cancer stem cells in mammosphere culture; assay: Mammosphere formation; type: cell-based, human
Excerpt: FIGS. 47A-47B show mammosphere formation upon inhibition of Wnt/β catenin signaling by iCRT-3.
FIGS. 49A-49B show mammosphere formation upon simultaneous inhibition of Wnt/β catenin signaling by addition of iCRT-3 and inhibition of NF-κB signaling.

[5] = tested on: ERα, PR, and IRS-1 in FOXC1-overexpressing MCF-7 cells; assay: Immunoblotting of ERα, PR and IRS-1; type: cell-based, human; settings: 5 μM, 24 h
Experimental: Whole cell lysates for western blotting were generated by cell lysis buffer (50 mM Tris-HCl, pH 7.4, 150 mM NaCl, 2 mM EDTA, 1% NP-40, 10% glycerol) supplemented with a protease inhibitor cocktail (Sigma, St Louis, Mo.). Equal amounts of protein were separated by 10% SDS-PAGE and then transferred onto a nitrocellulose membrane. The remaining steps were conducted according to a standard immunoblotting protocol (Qu et al., 2009). Immunoblotting was done with polyclonal antibodies against p65, FOXC1, IRS1 (1:200; Santa Cruz Biotechnology), polyclonal antibodies against phospho-p65, p50, IκBα (1:1000; Cell Signal), or monoclonal antibodies against ERα (1:500; Novocastra Laboratories, Newcastle upon Tyne, UK), PR (1:500; DAKO, Carpinteria, Calif.). Anti-β actin (Sigma) was used at a 1:10000 dilution. After the primary antibody incubation, the membrane was again washed with PBST three times (5 min each) and then incubated with a horseradish peroxidase (HRP)-linked secondary antibody (Amersham, Piscataway, N.J.) at a dilution of 1:4000 in blocking solution. The membrane was washed and bands were visualized using chemiluminescence assays.

triple-negative patients = settings: patients were a mix of basal-like positive and negative; cited from earlier work
[6] = tested on: FOXC1 expression in MDA-MB-231 basal-like/claudin-low cell line; assay: FOXC1 expression upon exposure to Wnt3a; type: cell-based, human; settings: MDA-MB-231 (low constitutive FOXC1 expressor) exposed to canonical Wnt ligand
Excerpt: FIGS. 44A-44D show the correlation between FOXC1 expression and Wnt activity upon biological and pharmacologic inhibition and stimulation with a natural ligand.

Molecule: CC/C(=C(\c1ccccc1)c1ccc(OCCN(C)C)cc1)c1ccccc1 [tamoxifen]
- sensitivity of cell proliferation to antiestrogen treatment (MCF-7 cells; FOXC1-overexpressing vs control MCF-7 cells, 10^−6 M, regular medium): less sensitive

Molecule: CCc1ccc(-c2nc(CSCC(=O)NCCc3ccccc3)c(C)o2)cc1 [iCRT3, 2-[[[2-(4-ethylphenyl)-5-methyl-4-oxazolyl]methyl]thio]-N-(2-phenylethyl)acetamide]
- sensitivity to treatment (decreased cell viability) [1]: more sensitive
- sensitivity to treatment (decreased cell viability) [2]: more sensitive
- FOXC1 expression level (FOXC1 expression): decrease in FOXC1 expression level
- FOXC1 expression level (FOXC1 expression; listed as iCRT-3): decreased FOXC1 expression
- FOXC1 positive cells ([3]; cells persisting after Wnt inhibition): depletion of FOXC1 positive cells
- expression of embryonic stem cell transcription factors OCT4, SOX2 and NANOG ([3]; cells persisting after Wnt inhibition (day 4, day 7)): pronounced up regulation
- NF-κB signaling (qRT-PCR based pathway activation analysis) ([3]; residual cells that withstood Wnt inhibition): marked activation of NF-κB signaling
- mammosphere formation ability of persisting cells ([4]; BT549, Wnt inhibition alone, after an initial 4 day incubation period): renewed enhancement of mammosphere formation ability
- mammosphere formation efficiency ([4]; BT549 cells, Wnt inhibition alone vs DMSO): reduced mammosphere formation efficiency

Molecule: Cc1ccc2nc(NCCN)c3ncc(C)n3c2c1 [BMS-345541]
- sensitivity of cell proliferation to NF-κB inhibition (MCF-7 cells; FOXC1-overexpressing vs vector MCF-7 cells, 5 μM): sensitized
- levels of ERα, PR, and IRS-1 [5]: elevated levels

Molecule: C[C@]12CC[C@@H]3c4ccc(O)cc4CC[C@H]3[C@@H]1CC[C@@H]2O [estradiol, 17β-estradiol]
- increase of cell growth induced by treatment (MCF-7 cells; FOXC1-overexpressing vs control MCF-7 cells, serum-starved, 10^−8 M): diminished the increase of cell growth

Molecule: CC(C)C[C@H](NC(=O)[C@H](Cc1ccccc1)NC(=O)c1cnccn1)B(O)O [bortezomib]
- outcome of clinical trial (triple-negative patients): inconclusive results

B1: Wnt3a: a canonical Wnt signaling ligand (protein, UniProt P56704 19-352, looked up)
Protein Wnt-3a: SYPIWWSLAVGPQYSSLGSQPILCASIPGLVPKQLRFCRNYVEIMPSVAEGIKIGIQECQHQFRGRRWNCTTVHDSLAIFGPVLDKATRESAFVHAIASAGVAFAVTRSCAEGTAAICGCSSRHQGSPGKGWKWGGCSEDIEFGGMVSREFADARENRPDARSAMNRHNNEAGRQAIASHMHLKCKCHGLSGSCEVKTCWWSQPDFRAIGDFLKDKYDSASEMVVEKHRESRGWVETLRPRYTYFKVPTERDLVYYEASPNFCEPNPETGSFGTRDRTCNVSSHGIDGCDLLCCGRGHNARAERRREKCRCVFHWCCYVSCQECTRVYDVHTCK
- FOXC1 expression [6]: increased expression of FOXC1; also recorded: increase in FOXC1 expression

From patent US10570458B2, “Methods for diagnosis, prognosis and treatment of primary and metastatic basal-like breast cancer and other cancer types” (ONCONOSTIC TECHNOLOGIES, INC., priority 2009, dated 2020)
